# Measurements published in US12344599B2, “Prodigiosin analogs and methods of use” (Institute For Cancer Research, priority 2016, dated 2025).
# How the values were obtained:
# MDA-MB-468 = experiment: CellTiterGlo cell viability assay, MDA-MB-468; type: cell-based; conditions: Homo sapiens; MDA-MB-468, breast cancer, p53 R273H, 72 hours
# [1] = system: p53 target genes in HT29 cells; experiment: RNA-Seq gene profiling with IPA analysis; type: cell-based, human; conditions: HT29, 1 μM for 24 hours
# Description: Having confirmed that PG3-Oc induces apoptosis in multiple p53-expressing mutant cancer cell lines, whether this small molecule restored p53 pathway signaling was investigated in HT29 cells after treatment with 1 μM PG3-Oc for 24 hours. For this purpose, gene profiling was performed by RNA-Seq and bioinformatics analysis, such as IPA (Ingenuity pathway analysis), GSEA (gene set enrichment analysis) and GO (gene ontology) (See details at Methods and Materials). […] Key p53 target gene CDKN1A (p21) that negatively regulate cell cycle and other p53 target genes that regulate apoptosis such as, TNFRSF10B (DR5), BBC3 (PUMA), BIRC5 (Survivin), TP53INP1 (Teap) were identified in canonical p53 pathway analysis. […] To verify that the behavior of regulation of p53 target genes by PG3-Oc is similar to p53 protein, based on published data (Fischer, Oncogene, 2017, 36(28), 3943-3956), genes directly repressed (FIG. 89) and activated (FIG. 90) by the p53 transcription factor were selected. […] This implicates that PG3-Oc is able to restore the p53 pathway.
# [2] = system: ATF4 and CHOP in HCT116 p53−/− cells; experiment: Western blot of ATF4 and CHOP, HCT116 p53−/−; type: cell-based, human
# Description: • 1) Cell lines: HT29, SW480, DLD-1, HCT116, and p53-null HCT116 cells, H1975, MDA-MD-231, U251, FaDu, CAL-27, PANC-1, Aspc-1, and MRC5 were obtained from the ATCC and cultured as recommended. Cells were regularly authenticated by bioluminescence, growth, and morphologic observation. The cells were routinely examined for Mycoplasma and all cell lines underwent STR authentication. • 2) Western blotting: After treatment, protein lysates were collected for Western blot analysis. 15 μg of protein was used for SDS-PAGE. After primary and secondary antibody incubations, the signal was detected by chemiluminescent detection kit, imaged by Syngene (Imgen Technologies). […] The cell viability was assessed by CellTiterGlo bioluminescent cell proliferation assay (Promega), following the manufacturer's protocol. Bioluminescence imaging was measured using the IVIS imager. Percentage of cell viability (mean±SEM) at each dose was calculated against the respective DMSO control. The IC50 values were determined from the sigmoidal dose-response curves using GraphPad Prims4. • 4) Caspase activity assay: Cells were seeded in 96-well plate (1×10^4 cells/well). […] The caspase 3/7 activity was assessed by Caspase-Glo® 3/7 Assay kit (Promega), following the manufacturer's protocol. Bioluminescence imaging was measured using the IVIS imager. […]
# p53-target genes = experiment: Western blotting of p53-target genes (Example 1); type: cell-based, human
# Description: After treatment, protein lysates were collected for Western blot analysis. Twenty-five micrograms of protein were used for SDS-PAGE. After primary and secondary antibody incubations, the signal was detected with a chemiluminescent detection kit, followed by autoradiography or Syngen. […] In FIG. 10, p53-null HCT116 cells were treated with P01 and P306, alone or in combination with SiCon or SiTAp73, in various concentrations for 6 hours, and tested for p73 (C.S.), p73 (Bethyl), P63-α, p53, DR5, Puma, P21, and Ran proteins.
smiles,measurement,setting,value
"CCCCCCCCOC(=O)CCc1c(C)[nH]c(/C=C2\N=C(c3ccc[nH]3)C=C2OC)c1C [PG3-Oc, Octyl (Z)-3-(5-((4′-methoxy-1H,5′H-[2,2′-bipyrrol]-5′-ylidene)methyl)-2,4-dimethyl-1H-pyrrol-3-yl)propanoate]",IC50,MDA-MB-468,0.0976 µM
same,PMAIP1 (Noxa) increase as compared to control,[1],1.9 fold
same,concentration at which induction of ATF4 and CHOP occurred,[2],1.25 µM
same,expression of p53-target genes,p53-target genes,induced mutant p53 and ΔNp73 degradation and the expression of p53-target genes
